Test results taken from patent publication US20130079309A1, “Method Of Treating Acute Lung Injury Using Sphingosine 1 Phosphate Analogs Or Sphingosine 1 Phosphate Receptor Agonists” (The Board of Trustees of the University of Illinois, priority 2010, published 2013).

How the values were obtained:
[1] = biological target: T1, S1P receptor 1 (S1PR1) (Mus musculus, UniProt O08530); assay: S1PR1 levels in lung homogenates of bleomycin mice by Western blotting; type: in vivo; details: 14 days after bleomycin
T1 construct: Lung homogenates were collected 14 days after bleomycin instillation; from tissue; host or cells: mouse lung (C57/BL6, bleomycin-injured)
Experimental: Lung homogenates were collected 14 days after bleomycin instillation. S1PR1 protein expression was determined by Western blotting (representative blots shown), quantified by densitometry, and normalized to actin concentration in the samples. Mean±S.D. is shown. N=2-3 animals per group.
As discussed above, (S)-FTY720-phosphonate maintains S1PR1 expression in mouse lungs after 24 hr relative to other S1PR1 agonists (FIG. 17). The data shown in FIG. 23 extend these observations to 14 days.

[2] = system: HPAEC; assay: Transendothelial electrical resistance (TER) of HPAEC; type: cell-based, human; details: for maximal TER change: 10 μM
Experimental: Cells were grown at 37° C. in a 5% CO2 incubator, and passages 6 to 9 were used for experiments. Media were changed 1 day before experimentation.

[3] = system: ERK; assay: Western blotting of HPAEC lysates for phospho-ERK; type: cell-based, human; details: 5 min
Experimental: (§1) After treatment as outlined for individual experiments, confluent HPAEC were lysed for Western blotting with phospho-MLC, pan-MLC, phospho-ERK, or pan-ERK antibodies. […] Membranes were then immunoblotted with primary antibodies (1:500-1000, 4° C., overnight) followed by secondary antibodies conjugated to horseradish peroxidase (1:5000, room temperature, 30 min) and detected with enhanced chemiluminescence (Pierce ECL or SuperSignal West Dura; Pierce Biotechnology, Rockford, Ill.) on Biomax MR film (Carestream Health, Rochester, N.Y.).

[4] = system: HPAEC; assay: Transwell transendothelial permeability assay (FITC-dextran); type: cell-based, human; details: 1 μM (3R, 3S 25 μM), 1 h before FITC-dextran, 2-h incubation
Experimental: As a complementary approach to further characterize the barrier-protective effects of these FTY720 analogs in vitro, the permeability of FITC-labeled dextran across the pulmonary EC monolayer was assayed in response to treatment by the FTY720 analogs. […] Data were normalized to unstimulated control. n=3 independent experiments per condition; *, p<0.01 versus unstimulated condition (see FIG. 26).

[5] = system: HPAEC; assay: Immunofluorescence of F-actin cytoskeletal rearrangement; type: cell-based, human; details: 1 μM, 5 min (FTY720 5 and 30 min)
Experimental: Immunofluorescence was used to assess cytoskeletal rearrangements of […] cells in response to treatment with FTY720 analogs. Confluent HPAEC were stimulated with vehicle control or 1 μM S1P, 1R, 2R, or 3R for 5 min or with FTY720 (1 μM) for 30 min. EC were then fixed in 3.7% formaldehyde for 10 min, permeabilized with 0.25% Triton X-100 for 5 min, washed in PBS, blocked with 2% bovine serum albumin in Tris-buffered saline with Tween 20 for 1 h, and then incubated for 1 h at room temperature with the primary antibody of interest. After washing, EC were incubated with the appropriate secondary antibody conjugated to immunofluorescent dyes (or Texas Red-conjugated phalloidin for actin staining) for 1 h at room temperature. After further washing with Tris-buffered saline with Tween 20, coverslips were mounted using Prolong Anti-Fade Reagent (Invitrogen) and analyzed using a Nikon Eclipse TE2000 inverted microscope (Nikon, Melville, N.Y.).

[6] = system: MLC; assay: Western blotting of HPAEC lysates for phospho-MLC; type: cell-based, human; details: 5 min
Experimental: as §1

[7] = system: HPAEC; assay: Intracellular calcium by Fura-2; type: cell-based, human; details: 1 μM
Experimental: To further explore the mechanistic differences in barrier regulation, intracellular calcium responses to the FTY720 analogs, S1P, and FTY720 were examined using Fura-2 (Harbeck et al., 2006, Sci STKE 2006: p16). HPAEC plated on 25-mm glass coverslips were loaded with 1 μM Fura-2/acetoxymethyl ester (Invitrogen, Carlsbad, Calif.) for 20 min at 37° C. in KRBH5 buffer (Krebs-Ringer-bicarbonate solution containing 119 mM NaCl, 4.7 mM KCl, 2.5 mM CaCl2, 1 mM MgCl2, 1 mM KH2PO4, 25 mM NaHCO3, mM HEPES-NaOH (pH 7.4), and 5 mM glucose). After replacement of the Fura-2 loading buffer with fresh KRBH5, coverslips were placed into the specimen stage of an inverted fluorescence microscope (Nikon TE-2000U). A Nikon Super Fluor 10× objective was used for these studies. Filters (340- and 380-nm excitation and 530-nm emission) were used for Fura-2 dual excitation ratio imaging. […] Fura-2 ratios were converted to [Ca^2+] using the equation: [Ca^2+]=(Kd′[(R−Rmin)/(Rmax−R)]×Sf/Sb) (Grynkiewicz et al., 1985, J Biol Chem 260: 3440-3450), where Kd′ is the dissociation constant for Fura-2 in the cytosol (225 nM) and Sf and Sb are the measured emission intensities at 380 nm for Ca^2+-free and Ca^2+-bound Fura-2, respectively. Data summaries for all Ca^2+ measurements are expressed as the means±S.E.

[8] = system: bleomycin-induced ALI in C57/BL6 mice; details: Shea et al., 2010; cited from earlier work
[9] = system: LPS-induced lung injury in C57BL/6 mice; details: single intraperitoneal injection; Peng et al., 2004; cited from earlier work

T1 sequence (O08530 whole entry): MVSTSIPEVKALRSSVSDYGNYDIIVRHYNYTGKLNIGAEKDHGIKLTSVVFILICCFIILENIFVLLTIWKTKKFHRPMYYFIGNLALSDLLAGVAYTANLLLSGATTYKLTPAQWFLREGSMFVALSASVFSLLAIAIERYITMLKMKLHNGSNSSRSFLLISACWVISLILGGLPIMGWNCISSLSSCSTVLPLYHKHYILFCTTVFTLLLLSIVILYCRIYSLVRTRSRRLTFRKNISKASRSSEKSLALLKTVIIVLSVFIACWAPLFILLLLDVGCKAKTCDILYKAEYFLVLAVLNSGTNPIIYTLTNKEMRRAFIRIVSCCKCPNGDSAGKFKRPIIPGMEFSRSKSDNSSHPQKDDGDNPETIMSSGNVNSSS

Compound | S1PR1 levels in lungs, compared to FTY720-treated animals [1] | maximal percentage TER change compared with S1P and FTY720 ([2]; 1 μM, within 60 min) | maximal TER change ([2]; within 60 min) | ERK phosphorylation [3] | TER response (tracing) ([2]; 1 μM) | EC permeability to FITC-dextran vs control EC [4] | cortical actin ring formation / F-actin rearrangement [5] | MLC phosphorylation [6] | intracellular calcium [Ca2+]i [7] | lung injury and mortality in bleomycin-injured mice on prolonged exposure [8] | murine LPS induced pulmonary injury, 24 hours after LPS [9]
CCCCCCCCc1ccc(CC[C@@](N)(CO)CCP(=O)(O)O)cc1 [1S, (S)-3-amino-3-(hydroxymethyl)-5-(4-octylphenyl)pentylphosphonic acid] | higher levels of S1PR1 | greater maximal percentage TER change | even greater maximal TER elevation | failed to induce phosphorylation | – | – | – | – | – | – | –
CCCCCCCCc1ccc(CCC(N)(CO)CO)cc1 [FTY720, 2-amino-2-[2-(4-octylphenyl)ethyl]propane-1,3-diol] | – | – | somewhat barrier-disruptive | – | delayed onset of barrier enhancement | significantly decreased permeability | failed to elicit cortical actin ring formation | Neither FTY720 nor any of its analogs induced significant MLC phosphorylation | only S1P produced a transient Ca^2+ spike | increased lung injury and mortality | attenuate murine LPS induced-pulmonary injury
